Where two headings read alike, the source gives them in different places.
Tests used:
MDA-MB-231 cells = test: In vitro growth inhibition (resazurin, 72 h), MDA-MB-231; format: cell-based; conditions: Homo sapiens, mean ± SE
HeLa cells = test: In vitro growth inhibition (resazurin, 72 h), HeLa; format: cell-based; conditions: Homo sapiens, concentration inhibiting tumor cell proliferation by 50%, mean ± SE
[1] = tested on: tubulin (colchicine site); test: Inhibition of [3H]colchicine binding to tubulin; design: species or system bovine; conditions: tubulin 0.5 µM, [3H]colchicine 5 µM, tested compound 5 µM
Protocol: (§1) Bovine brain tubulin was purified as described previously. To evaluate the effects of the compounds on tubulin assembly in vitro [77], varying concentrations were preincubated with 10 μM tubulin in 0.8 M monosodium glutamate (pH 6.6) at 30 °C, and the reaction mixtures were then cooled to 0 °C. After addition of GTP, the mixtures were transferred to 0 °C cuvettes in Beckman Coulter (Brea, CA, USA) DU-7400/DU-7500 recording spectrophotometers equipped with electronic temperature controllers and were warmed to 30 °C, and the assembly of tubulin was observed turbidimetrically. […] Inhibition of colchicine binding to tubulin was measured as described before, except that the reaction mixtures contained 0.5 μM tubulin and 5 μM each of [^3H]colchicine and test compound. Only one DEAE-cellulose filter was used per sample, and filtration was via gravity.

bovine brain tubulin = test: Inhibition of tubulin polymerization (turbidimetric); format: biochemical; conditions: tubulin at 10 μM; 20 min incubation at 30 °C; read-out: Tubulin Assembly IC50 ± SD
Protocol: as §1

A549 cells = test: In vitro growth inhibition (resazurin, 72 h), A549; format: cell-based; conditions: Homo sapiens, mean ± SE
MCF-7 cells = test: In vitro growth inhibition (resazurin, 72 h), MCF-7; format: cell-based; conditions: Homo sapiens, MCF7, mean ± SE
human recombinant HDAC6 = molecular target: T1, human recombinant HDAC6 (Homo sapiens, UniProt Q9UBN7); test: HDAC isoform inhibition, fluorogenic substrate, HDAC6; format: biochemical; conditions: mean ± SE; for IC50: read-out: IC50 (µM) hHDAC6
T1 construct: purchased BPS Bioscience 50056
T1 sequence (Q9UBN7 1-1215): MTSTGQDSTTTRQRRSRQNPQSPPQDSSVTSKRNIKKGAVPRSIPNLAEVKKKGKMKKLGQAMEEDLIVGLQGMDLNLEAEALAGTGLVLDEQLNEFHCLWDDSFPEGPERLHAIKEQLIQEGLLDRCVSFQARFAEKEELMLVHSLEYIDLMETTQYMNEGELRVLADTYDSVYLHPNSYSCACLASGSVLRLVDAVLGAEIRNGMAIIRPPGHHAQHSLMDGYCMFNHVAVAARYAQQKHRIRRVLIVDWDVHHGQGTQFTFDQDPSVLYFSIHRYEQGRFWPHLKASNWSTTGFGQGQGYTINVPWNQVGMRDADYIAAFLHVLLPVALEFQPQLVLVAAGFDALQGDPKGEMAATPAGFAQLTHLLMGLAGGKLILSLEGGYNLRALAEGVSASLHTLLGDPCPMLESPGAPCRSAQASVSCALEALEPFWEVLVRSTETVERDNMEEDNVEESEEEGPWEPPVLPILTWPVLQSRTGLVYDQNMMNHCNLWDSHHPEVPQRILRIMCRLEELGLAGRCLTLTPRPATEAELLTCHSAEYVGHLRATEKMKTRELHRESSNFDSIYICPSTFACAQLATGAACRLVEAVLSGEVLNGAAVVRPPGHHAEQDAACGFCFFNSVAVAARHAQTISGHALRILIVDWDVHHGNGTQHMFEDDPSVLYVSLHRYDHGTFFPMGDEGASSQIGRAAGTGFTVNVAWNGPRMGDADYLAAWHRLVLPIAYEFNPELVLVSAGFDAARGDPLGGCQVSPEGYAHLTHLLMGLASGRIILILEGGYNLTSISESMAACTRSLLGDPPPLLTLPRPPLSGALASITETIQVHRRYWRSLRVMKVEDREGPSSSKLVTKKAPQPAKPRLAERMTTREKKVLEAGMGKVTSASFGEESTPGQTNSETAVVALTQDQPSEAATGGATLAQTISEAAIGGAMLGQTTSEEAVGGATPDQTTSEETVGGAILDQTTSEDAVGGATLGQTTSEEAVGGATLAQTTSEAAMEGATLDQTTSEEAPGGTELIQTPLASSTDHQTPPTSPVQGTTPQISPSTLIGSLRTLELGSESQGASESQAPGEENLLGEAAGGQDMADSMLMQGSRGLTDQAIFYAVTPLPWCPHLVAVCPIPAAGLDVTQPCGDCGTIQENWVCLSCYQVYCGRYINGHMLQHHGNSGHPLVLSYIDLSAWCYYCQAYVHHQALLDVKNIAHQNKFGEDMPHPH
Protocol: Further experiments were also carried out to evaluate the inhibitory activities of test compounds on selected HDAC isoforms. […] Following an incubation of 15 min at RT, fluorescence was measured in an EnSight multimodal plate reader (PerkinElmer, Boston, MA, USA) with an excitation wavelength of 360 nm and an emission wavelength of 450 nm.

HT-29 cells = test: In vitro growth inhibition (resazurin, 72 h), HT-29; format: cell-based; conditions: Homo sapiens, mean ± SE
[2] = tested on: panel of five human cancer cell lines (HeLa, MDA-MB-231, A549, HT-29, MCF-7); test: In vitro growth inhibition, range over the panel of five cancer cell lines
Protocol: All the cell lines were purchased from the American Type Culture Collection (ATCC, Manassas, VA, USA). Drug stock solutions were prepared for each compound by dissolving them in DMSO at 10 mM.
Cancer cells were seeded in tissue treated, flat bottom, 384-well plates (Corning, Corning, NY, USA) according to their optimal density, in 27 μL of complete medium per well, using a Microlab STAR 96-CORE liquid handling system (Hamilton Bonaduz, Bonaduz, Switzerland) as described previously [75]. Each compound was tested in a 6-points 2-fold dose–response curve, and each dose was tested in duplicate within each plate, in three independent experiments. The final concentration of DMSO in the wells never exceeded 0.1%, which was the maximum concentration.
Only plates with acceptable Z-prime quality metrics (Z′ > 0.6) were further analyzed for the drug screening. Raw data were normalized according to the following equation: cell viability (%) = (x − POS)/(NEG − POS) × 100, where x is the relative fluorescence units (RFU) collected from each single well, NEG is the mean of intraplate negative controls (DMSO, corresponding to 100% cell viability), and POS is the mean of intraplate positive controls (Bortezomib 1 μΜ, equal to 0% cell viability).

Row | IC50 (MDA-MB-231 cells) [nM] | IC50 (HeLa cells) [nM] | Colchicine Binding % Inhibition ± SD [1] [%] | IC50 (bovine brain tubulin) [nM] | IC50 (A549 cells) [nM] | IC50 (MCF-7 cells) [nM] | IC50 (human recombinant HDAC6) [µM] | melting point [°C] | IC50 (HT-29 cells) [nM] | IC50 ([2]; read-out: IC50 values, range or bound over the cancer cell line panel) [nM] | Compound | IC50 ([2]; read-out: IC50 values, range over the cancer cell line panel) [nM] | IC50 (µM) hHDAC6 (human recombinant HDAC6)
1 | 72.6 ± 5.03 | 36.8 ± 4.13 | 41 ± 5 | 1100 ± 200 | 187 ± 1.02 | 40 ± 4 | > 30 | 198 to 199 | 401 ± 2.03 | – | COc1cc2oc(C(=O)c3ccc(OC)c(OC)c3)c(C)c2cc1/C=C/C(=O)NO [Compound 6b, (E)-3-(2-(3,4-Dimethoxybenzoyl)-6-methoxy-3-methylbenzofuran-5-yl)-N-hydroxyacrylamide] | – | –
2 | 101 ± 0.03 | 15.2 ± 0.02 | – | – | 206 ± 2.92 | – | – | 205 to 206 | 1.58 ± 0.06 | – | COc1cc2oc(C(=O)c3ccccc3)c(C)c2cc1C#CC(=O)NO [Compound 11g, 3-(2-Benzoyl-6-methoxy-3-methyl-benzofuran-5-yl)prop-2yne hydroxamic acid] | – | –
3 | 345 ± 4.03 | 60.5 ± 2.26 | 20 ± 2 | 5400 ± 100 | 276 ± 6.74 | 240 ± 10 | – | 243 to 245 | 4568 ± 21.4 | – | COc1cc2oc(C(=O)c3ccccc3OC)c(C)c2cc1C#CC(=O)NO [Compound 11f, N-Hydroxy-3-[6-methoxy-2-(2-methoxybenzoyl)-3-methyl-1-benzofuran-5-yl]prop-2-ynamide] | – | –
4 | 43.9 ± 3 | 7.3 ± 0.03 | 82 ± 1 | 560 ± 60 | 45.3 ± 2.93 | 20 ± 0.7 | 13.8 ± 0.8 | 248 to 250 | 96.5 ± 2.45 | – | COc1cc(OC)cc(C(=O)c2oc3cc(OC)c(C#CC(=O)NO)cc3c2C)c1 [Compound 11c, 3-[2-(3,5-Dimethoxybenzoyl)-6-methoxy-3-methyl-1-benzofuran-5-yl]-N-hydroxyprop-2-ynamide] | – | –
5 | 377 ± 1.09 | 69.4 ± 1.45 | 30 ± 2 | 2700 ± 70 | 972 ± 7.47 | > 10000 | – | 276 to 277 | 2.16 ± 0.86 | – | COc1cc2oc(C(=O)c3ccc(OC)c(OC)c3)c(C)c2cc1C#CC(=O)NO [Compound 11b, 3-[2-(3,4-Dimethoxybenzoyl)-6-methoxy-3-methyl-1-benzofuran-5-yl]-N-hydroxyprop-2-ynamide] | – | –
6 | 4.09 ± 0.06 | 1.43 ± 0.67 | – | – | 5.07 ± 0.22 | – | – | 222 to 224 | > 10000 | 1500 to 10000 | COc1ccc(C(=O)c2oc3cc(OC)c(C#CC(=O)NO)cc3c2C)cc1 [Compound 11d, N-Hydroxy-3-[6-methoxy-2-(4-methoxybenzoyl)-3-methyl-1-benzofuran-5-yl]prop-2-ynamide] | – | –
7 | 322 ± 12.4 | 47.6 ± 1.22 | 27 ± 4 | 1700 ± 100 | 222 ± 1.09 | 59 ± 10 | 12.6 ± 0.8 | 168 to 170 | 881 ± 8.23 | – | COc1ccc(C(=O)c2oc3cc(OC)c(/C=C/C(=O)NO)cc3c2C)cc1 [Compound 6d, (E)-N-Hydroxy-3-(6-methoxy-2-(4-methoxybenzoyl)-3-methylbenzofuran-5-yl)acrylamide] | – | –

Row | Compound | IC50 (MDA-MB-231 cells) [nM] | IC50 (HeLa cells) [nM] | Colchicine Binding % Inhibition ± SD [1] [%] | IC50 (bovine brain tubulin) [nM] | IC50 (A549 cells) [nM] | IC50 (MCF-7 cells) [nM] | IC50 (human recombinant HDAC6) [µM] | melting point [°C] | IC50 (HT-29 cells) [nM] | IC50 ([2]; read-out: IC50 values, range or bound over the cancer cell line panel) [nM] | IC50 ([2]; read-out: IC50 values, range over the cancer cell line panel) [nM] | IC50 (µM) hHDAC6 (human recombinant HDAC6)
8 | C#Cc1cc2c(C)c(C(=O)c3cc(OC)c(OC)c(OC)c3)oc2cc1OC [Compound 8, (5-ethynyl-6-methoxy-3-methyl-benzofuran-2-yl)-(3,4,5-trimethoxyphenyl)methanone] | 81.2 ± 6 | 18.2 ± 0.02 | – | – | 122 ± 8.6 | – | – | 186 to 188 | 207 ± 14 | – | 18 to 207 | –
9 | COc1cccc(C(=O)c2oc3cc(OC)c(C#CC(=O)NO)cc3c2C)c1 [Compound 11e, N-Hydroxy-3-[6-methoxy-2-(3-methoxybenzoyl)-3-methyl-1-benzofuran-5-yl]prop-2-ynamide] | 96.7 ± 1.65 | 8.4 ± 0.98 | 81 ± 3 | 420 ± 30 | 94.4 ± 3.03 | 15 | > 30 | – | 4.89 ± 0.03 | – | – | does not show any activity at the highest concentration tested
